Biological target: T1, Recombinant human mPGES-1 (Homo sapiens, UniProt O14684)
T1 construct: made in house; host or cells: CHO cells (crude microsomal fractions)
T1 sequence (O14684 1-152): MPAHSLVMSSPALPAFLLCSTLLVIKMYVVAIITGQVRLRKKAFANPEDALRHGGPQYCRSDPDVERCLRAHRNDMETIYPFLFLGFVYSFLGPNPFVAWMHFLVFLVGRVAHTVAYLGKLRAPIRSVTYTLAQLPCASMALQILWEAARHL
Assay: In-vitro screening of mPGES-1 inhibitors (inhibition of PGE2 formation from PGH2, HTRF detection)
Assay type: biochemical
Details: mPGES-1 enzyme; for inhibition at 1 µM: 1 μM test compound, read-out: Percentage inhibition at 1 μM; for inhibition at 10 µM: 10 μM test compound, read-out: Percentage inhibition at 10 μM; for IC50: class symbols
Method in brief: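 PGH2-to-PGE2 isomerization run for 1 min with 15 μM PGH2 after 10 min compound preincubation with microsomal enzyme (40–60 μg/mL) and 2.5 mM GSH, pH buffer 0.1 M potassium phosphate with EDTA. Stannous chloride quench, HTRF PGE2 readout, IC50 fitted against uninhibited reaction.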

SMILES	inhibition at 1 µM (crude microsomal fractions) [%]	inhibition at 10 µM (crude microsomal fractions) [%]	IC50 [nM]	inhibition at 3 µM (3 μM test compound, crude microsomal fractions, read-out: Percentage inhibition at 3 μM) [%]
COc1cc(-n2nc(-c3c(Cl)cccc3Cl)[nH]c2=O)ccc1-c1nc(C(C)C)no1 [Example-50, 3-(2,6-Dichlorophenyl)-1-(4-(3-isopropyl-1,2,4-oxadiazol-5-yl)-3-methoxyphenyl)-1H-1,2,4-triazol-5(4H)-one]	95.3	99.8	50 to 100	–
CC(C)(C)C(=O)NCc1ccc(Cl)c(-c2nn(-c3ccc(C#CC4CC4)cc3)c(=O)[nH]2)c1 [Example-167, N-(4-Chloro-3-(1-(4-(2-cyclopropylethynyl)phenyl)-4,5-dihydro-5-oxo-1H-1,2,4-triazol-3-yl)benzyl)pivalamide]	99	98.4	< 50	–
CC(C)C(=O)NCc1ccc(Cl)c(-n2nc(-c3ccc(C#CC4CC4)c(F)c3)[nH]c2=O)c1 [Example-150, N-(4-Chloro-3-(3-(4-(2-cyclopropylethynyl)-3-fluorophenyl)-4,5-dihydro-5-oxo-1,2,4-triazol-1-yl)benzyl)isobutyramide]	98.4	99.5	< 50	–
CC(C)(C)C(=O)NCc1ccc(Cl)c(-c2nn(-c3ccc(C#N)cc3)c(=O)[nH]2)c1F [Example-89, N-(4-chloro-3-(1-(4-cyanophenyl)-5-oxo-4,5-dihydro-1H-1,2,4-triazol-3-yl)-2-fluorobenzyl)pivalamide]	95.3	99.1	< 50	–
CC(C)(C)C(=O)NCc1ccc(Cl)c(-n2nc(-c3ccc(C#CC4CC4)c(F)c3)[nH]c2=O)c1 [Example-166, N-(4-Chloro-3-(3-(4-(2-cyclopropylethynyl)-3-fluorophenyl)-4,5-dihydro-5-oxo-1,2,4-triazol-1-yl)benzyl)pivalamide]	99.7	100	< 50	–
Cc1cc(C(F)(F)F)ccc1-n1nc(-c2cc(CNC(=O)C(C)(C)C)ccc2Cl)[nH]c1=O [Example-159, N-(4-Chloro-3-(1-(4-(trifluoromethyl)-2-methylphenyl)-4,5-dihydro-5-oxo-1H-1,2,4-triazol-3-yl)benzyl)pivalamide]	75.4	96.8	> 100	–
CC(C)(C)C(=O)NCc1ccc(Cl)c(-c2nn(-c3ccc(C(F)(F)F)cn3)c(=O)[nH]2)c1F [Example-94, N-(4-Chloro-2-fluoro-3-(5-oxo-1-(5-(trifluoromethyl)pyridin-2-yl)-4,5-dihydro-1H-1,2,4-triazol-3-yl)benzyl)pivalamide]	87	100	> 100	–
CC(C)(C)C(=O)NCc1ccc(Cl)c(-c2nn(-c3ccc(F)cc3F)c(=O)[nH]2)c1F [Example-85, N-(4-Chloro-j-(1-(2,4-difluorophenyl)-5-oxo-4,5-dihydro-1H-1,2,4-triazol-3-yl)-2-fluorobenzyl)pivalamide]	22.6	69.3	–	–
CCn1c(-c2c(F)cccc2Cl)nn(-c2ccc(C#Cc3cccc(Cl)c3F)cc2)c1=O [Example-71]	12.9	17.9	–	–
O=C(NCc1ccc(Cl)c(-n2nc(-c3ccc(C#CC4CC4)cc3)[nH]c2=O)c1)C(F)(F)F [Example-190, N-(4-Chloro-3-(3-(4-(cyclopropylethynyl)phenyl)-5-oxo-4,5-dihydro-1H-1,2,4-triazol-1-yl)benzyl)-2,2,2-trifluoroacetamide]	100	100	< 50	–
CC(C)(C)C(=O)NCc1ccc(Cl)c(-c2nn(-c3cccc(C(F)(F)F)c3)c(=O)[nH]2)c1 [Example-142, N-(4-Chloro-3-(1-(3-(trifluoromethyl)phenyl)-4,5-dihydro-5-oxo-1H-1,2,4-triazol-3-yl)benzyl)pivalamide]	97.2	94	< 50	–
Cc1cc(-n2nc(-c3cc(CNC(=O)C(C)(C)C)ccc3Cl)[nH]c2=O)ccc1Cl [Example-154, N-(4-Chloro-3-(1-(4-chloro-3-methylphenyl)-4,5-dihydro-5-oxo-1H-1,2,4-triazol-3-yl)benzyl)pivalamide]	95.2	100	< 50	–
CC(C)C(=O)NCc1cnc(C(F)F)c(-c2nn(-c3ccc(C(F)(F)F)cc3)c(=O)[nH]2)c1 [Example-187, N-((6-(Difluoromethyl)-5-(5-oxo-1-(4-(trifluoromethyl)phenyl)-4,5-dihydro-1H-1,2,4-triazol-3-yl)pyridin-3-yl)methyl)isobutyramide]	98.6	97.5	< 50	–
COc1cc(-n2nc(-c3c(F)cccc3Cl)[nH]c2=O)ccc1C#Cc1ccc(C(F)(F)F)cc1Cl [Example-61, 1-(4-((2-Chloro-4-(trifluoromethyl)phenyl)ethynyl)-3-methoxyphenyl)-3-(2-chloro-6-fluorophenyl)-1H-1,2,4-triazol-5(4H)-one]	92.4	96.8	< 50	–
Cc1ccc(CNC(=O)C(C)C)c(C)c1-c1nn(-c2ccc(C#CC(C)(C)C)cc2)c(=O)[nH]1 [Example-164, N-(3-(4,5-Dihydro-1-(4-(3,3-dimethylbut-1-ynyl)phenyl)-5-oxo-1H-1,2,4-triazol-3-yl)-2,4-dimethylbenzyl)isobutyramide]	98.3	97.2	< 50	–
COc1cc(-n2nc(-c3c(C)cccc3Cl)[nH]c2=O)ccc1C(=O)Nc1cccc(C(F)(F)F)c1 [Example-56, 4-(3-(2-Chloro-6-methylphenyl)-5-oxo-4,5-dihydro-1H-1,2,4-triazol-1-yl)-2-methoxy-N-(3-(trifluoromethyl)phenyl)benzamide]	98.1	98.5	< 50	–
COCCCNc1nc(-c2c(F)cccc2Cl)nn1-c1ccc(Br)cc1 [Example-11, 1-(4-Bromophenyl)-3-(2-chloro-6-fluorophenyl)-N-(3-methoxypropyl)-1H-1,2,4-triazol-5-amine]	2.34	71.7	–	–
COc1cc(-n2nc(-c3cc(S(=O)(=O)NC4CC4)ccc3Cl)[nH]c2=O)ccc1C(=O)Nc1cccc(C(F)(F)F)c1 [Example-69, 4-(3-(2-Chloro-5-(N-cyclopropylsulfamoyl)phenyl)-5-oxo-4,5-dihydro-1H-1,2,4-triazol-1-yl)-2-methoxy-N-(3-(trifluoromethyl)phenyl)benzamide]	86.4	89.1	> 100	–
O=C(NC1(c2ccc(C(F)(F)F)cc2)CC1)c1ccc(-n2nc(-c3c(F)cccc3Cl)[nH]c2=O)cc1 [Example-22, 4-[3-(2-Chloro-6-fluorophenyl)-5-oxo-4,5-dihydro-1H-1,2,4-triazol-1-yl]-N-{1-[4-(trifluoromethyl)phenyl]cyclopropyl}benzamide]	39.3	99.7	–	–
COc1cc(OC)cc(-c2noc(-c3ccc(-n4nc(-c5c(F)cccc5Cl)[nH]c4=O)cc3OC)n2)c1 [Example-41, 3-(2-Chloro-6-fluorophenyl)-1-(4-(3-(3,5-dimethoxyphenyl)-1,2,4-oxadiazol-5-yl)-3-methoxyphenyl)-1H-1,2,4-triazol-5(4H)-one]	58.8	87.1	–	–
COc1cc(-c2nn(-c3c(Cl)cccc3Cl)c(=O)[nH]2)ccc1NC(=O)c1ccc(C(F)(F)F)cc1 [Example-176, N-(4-(1-(2,6-Dichlorophenyl)-4,5-dihydro-5-oxo-1H-1,2,4-triazol-3-yl)-2-methoxyphenyl)-4-(trifluoromethyl)benzamide]	45.8	89.5	–	–
COc1cc(-n2nc(-c3c(Cl)cccc3C#N)[nH]c2=O)ccc1C(=O)Nc1cccc(C(F)(F)F)c1 [Example-62, 4-(3-(2-Chloro-6-cyanophenyl)-5-oxo-4,5-dihydro-1H-1,2,4-triazol-1-yl)-2-methoxy-N-(3-(trifluoromethyl)phenyl)benzamide]	97.8	98.3	< 50	–
O=C(NCc1cc(-c2nn(-c3ccc(C(F)(F)F)cc3)c(=O)[nH]2)c(Cl)cc1F)C(F)(F)F [Example-113, N-(4-chloro-2-fluoro-5-(1-(4-(trifluoromethyl)phenyl)-4,5-dihydro-5-oxo-1H-1,2,4-triazol-3-yl)benzyl)-2,2,2-trifluoroacetamide]	99.3	99.1	< 50	–
O=C(NCc1cc(-c2nn(-c3ccc(Cl)cc3)c(=O)[nH]2)c(Cl)cc1F)c1ccccc1F [Example-132, N-(4-Chloro-5-(1-(4-chlorophenyl)-4,5-dihydro-5-oxo-1H-1,2,4-triazol-3-yl)-2-fluorobenzyl)-2-fluorobenzamide]	91.8	89.8	< 50	–
O=C(NCc1ccccc1C(F)(F)F)c1ccc(-n2nc(-c3c(F)cccc3Cl)[nH]c2=O)cc1 [Example-18, 4-[3-(2-Chloro-6-fluorophenyl)-5-oxo-4,5-dihydro-1H-1,2,4-triazol-1-yl]-N-[2-(trifluoromethyl)benzyl]benzamide]	56.2	98.1	–	–
O=c1[nH]c(-c2c(F)cccc2Cl)nn1-c1ccc(C#Cc2ccccc2C(F)(F)F)cc1 [Example-3, 5-(2-Chloro-6-fluorophenyl)-2-(4-{[2-(trifluoromethyl)phenyl]ethynyl}phenyl)-2,4-dihydro-3H-1,2,4-triazol-3-one]	88.9	–	< 50	96.8

Reference: patent US10821100B2, “Triazolone compounds as mPGES-1 inhibitors” (Glenmark Pharmaceuticals S.A., priority 2012, dated 2020)
